In ChEMBL document CHEMBL3286240, “Inhibition of Enterococcus faecalis biofilm formation by highly active lactones and lactams analogues of rubrolides” (Eur J Med Chem, 2014) one finds Activity and IC50 data, which are given here for five compounds.

SMILES strings stand for the structures. Converted amounts (≈) assume the structure as drawn.

The first experiment concerns Enterococcus faecalis. Put plainly: Antimicrobial activity against Enterococcus faecalis assessed as bacterial growth at 0.34 ug/ml after 20 hrs by microtiter plate assay. The class given is functional.
Regarding `COc1cccc(/C=C2\C(c3cc(Cl)ccc3OC)=C(Br)C(=O)N2CC(C)C)c1`, the Activity is listed as -6.4%.

Consider `COc1ccccc1C1=C(Br)C(=O)N(CC(C)C)/C1=C/c1ccc(C(F)(F)F)cc1`, for which the Activity came out at 0.4%.

Regarding `COc1ccc(C)cc1C1=C(Br)C(=O)N(CC(C)C)/C1=C\c1ccccc1Cl`, the Activity was -7.4%.

Regarding `COc1ccc(Br)cc1C1=C(Br)C(=O)O/C1=C\c1ccc(Br)cc1`, the Activity was -0.3%.

For `COc1ccc(C)cc1C1=C(Br)C(=O)N(CC(C)C)/C1=C/c1ccccc1Cl`, the Activity is given as -1.8%.

In another experiment the test system is Enterococcus faecalis. Kind of experiment: Antimicrobial activity against Enterococcus faecalis assessed as bacterial growth at 0.17 ug/ml after 20 hrs by microtiter plate assay. The class given is functional.
Consider `COc1cccc(/C=C2\C(c3cc(Cl)ccc3OC)=C(Br)C(=O)N2CC(C)C)c1`, for which the Activity is -9.4%.

Take `COc1ccccc1C1=C(Br)C(=O)N(CC(C)C)/C1=C/c1ccc(C(F)(F)F)cc1`: the Activity came to 3.3%.

As for `COc1ccc(C)cc1C1=C(Br)C(=O)N(CC(C)C)/C1=C\c1ccccc1Cl`, the Activity was -4.2%.

For `COc1ccc(Br)cc1C1=C(Br)C(=O)O/C1=C\c1ccc(Br)cc1`, the Activity stood at 0.8%.

Take `COc1ccc(C)cc1C1=C(Br)C(=O)N(CC(C)C)/C1=C/c1ccccc1Cl`: the Activity is listed as -1.5%.

For a further experiment, the system named is Enterococcus faecalis. Kind of experiment: Antimicrobial activity against Enterococcus faecalis assessed as bacterial growth at 21.9 ug/ml after 20 hrs by microtiter plate assay. In kind it is functional.
Take `COc1cccc(/C=C2\C(c3cc(Cl)ccc3OC)=C(Br)C(=O)N2CC(C)C)c1`: the Activity came to 30.1%.

For `COc1ccccc1C1=C(Br)C(=O)N(CC(C)C)/C1=C/c1ccc(C(F)(F)F)cc1`, the Activity was found to be 15.8%.

For the compound `COc1ccc(C)cc1C1=C(Br)C(=O)N(CC(C)C)/C1=C\c1ccccc1Cl`, the Activity was 52.2%.

On to `COc1ccc(Br)cc1C1=C(Br)C(=O)O/C1=C\c1ccc(Br)cc1`, for which the Activity came out at 9.6%.

For the compound `COc1ccc(C)cc1C1=C(Br)C(=O)N(CC(C)C)/C1=C/c1ccccc1Cl`, the Activity amounted to 46.9%.

The test system of another experiment is Enterococcus faecalis. Put plainly: Antimicrobial activity against Enterococcus faecalis assessed as bacterial growth at 1.37 ug/ml after 20 hrs by microtiter plate assay. In kind it is functional.
For the compound `COc1cccc(/C=C2\C(c3cc(Cl)ccc3OC)=C(Br)C(=O)N2CC(C)C)c1`, the Activity was -4.8%.

For `COc1ccccc1C1=C(Br)C(=O)N(CC(C)C)/C1=C/c1ccc(C(F)(F)F)cc1`, the Activity turned out to be 1.6%.

Regarding `COc1ccc(C)cc1C1=C(Br)C(=O)N(CC(C)C)/C1=C\c1ccccc1Cl`, the Activity was 24.6%.

On to `COc1ccc(Br)cc1C1=C(Br)C(=O)O/C1=C\c1ccc(Br)cc1`, for which the Activity is reported as 8.8%.

For the compound `COc1ccc(C)cc1C1=C(Br)C(=O)N(CC(C)C)/C1=C/c1ccccc1Cl`, the Activity is listed as 15.7%.

In another experiment the test system is Enterococcus faecalis. Put plainly: Antimicrobial activity against Enterococcus faecalis assessed as bacterial growth at 5.5 ug/ml after 20 hrs by microtiter plate assay. The class given is functional.
For `COc1cccc(/C=C2\C(c3cc(Cl)ccc3OC)=C(Br)C(=O)N2CC(C)C)c1`, the Activity is listed as 33.7%.

As for `COc1ccccc1C1=C(Br)C(=O)N(CC(C)C)/C1=C/c1ccc(C(F)(F)F)cc1`, the Activity worked out at 9.2%.

In the case of `COc1ccc(C)cc1C1=C(Br)C(=O)N(CC(C)C)/C1=C\c1ccccc1Cl`, the Activity came out at 41.9%.

`COc1ccc(Br)cc1C1=C(Br)C(=O)O/C1=C\c1ccc(Br)cc1`: the Activity is recorded as 9.6%.

As for `COc1ccc(C)cc1C1=C(Br)C(=O)N(CC(C)C)/C1=C/c1ccccc1Cl`, the Activity was 36.6%.

The subject of the next experiment is Enterococcus faecalis. Put plainly: Antimicrobial activity against Enterococcus faecalis assessed as bacterial growth at 43.8 ug/ml after 20 hrs by microtiter plate assay. The class given is functional.
Consider `COc1cccc(/C=C2\C(c3cc(Cl)ccc3OC)=C(Br)C(=O)N2CC(C)C)c1`, for which the Activity was found to be 33.5%.

As to `COc1ccccc1C1=C(Br)C(=O)N(CC(C)C)/C1=C/c1ccc(C(F)(F)F)cc1`, the Activity is 17.5%.

Regarding `COc1ccc(C)cc1C1=C(Br)C(=O)N(CC(C)C)/C1=C\c1ccccc1Cl`, the Activity amounted to 62.1%.

On to `COc1ccc(Br)cc1C1=C(Br)C(=O)O/C1=C\c1ccc(Br)cc1`, for which the Activity is recorded as 22.3%.

Regarding `COc1ccc(C)cc1C1=C(Br)C(=O)N(CC(C)C)/C1=C/c1ccccc1Cl`, the Activity came to 58.8%.

In another experiment the test system is Enterococcus faecalis. Put plainly: Antimicrobial activity against Enterococcus faecalis assessed as bacterial growth at 2.73 ug/ml after 20 hrs by microtiter plate assay. The class given is functional.
Consider `COc1cccc(/C=C2\C(c3cc(Cl)ccc3OC)=C(Br)C(=O)N2CC(C)C)c1`, for which the Activity was 8.1%.

On to `COc1ccccc1C1=C(Br)C(=O)N(CC(C)C)/C1=C/c1ccc(C(F)(F)F)cc1`, for which the Activity is on record as 10.9%.

Turning to `COc1ccc(C)cc1C1=C(Br)C(=O)N(CC(C)C)/C1=C\c1ccccc1Cl`, the Activity stood at 33%.

As for `COc1ccc(Br)cc1C1=C(Br)C(=O)O/C1=C\c1ccc(Br)cc1`, the Activity turned out to be 1.1%.

Regarding `COc1ccc(C)cc1C1=C(Br)C(=O)N(CC(C)C)/C1=C/c1ccccc1Cl`, the Activity is listed as 27.8%.

The subject of the next experiment is Enterococcus faecalis. Put plainly: Antimicrobial activity against Enterococcus faecalis assessed as bacterial growth at 87.5 ug/ml after 20 hrs by microtiter plate assay. The class given is functional.
For `COc1cccc(/C=C2\C(c3cc(Cl)ccc3OC)=C(Br)C(=O)N2CC(C)C)c1`, the Activity is recorded as 56.3%.

Take `COc1ccccc1C1=C(Br)C(=O)N(CC(C)C)/C1=C/c1ccc(C(F)(F)F)cc1`: the Activity is reported as -18.9%.

With `COc1ccc(C)cc1C1=C(Br)C(=O)N(CC(C)C)/C1=C\c1ccccc1Cl`, the Activity is on record as 95.3%.

Take `COc1ccc(Br)cc1C1=C(Br)C(=O)O/C1=C\c1ccc(Br)cc1`: the Activity was 35.9%.

In the case of `COc1ccc(C)cc1C1=C(Br)C(=O)N(CC(C)C)/C1=C/c1ccccc1Cl`, the Activity was 82%.

For another experiment, the system named is Enterococcus faecalis. Kind of experiment: Antimicrobial activity against Enterococcus faecalis assessed as inhibition of biofilm formation after 20 hrs by crystal violet staining analysis. In kind it is functional, organism-based.
For orientation: IC50 means the concentration that inhibits the measured activity by half. On to `COc1cccc(/C=C2\C(c3cc(Cl)ccc3OC)=C(Br)C(=O)N2CC(C)C)c1`, for which the IC50 came to 3.26 µg/mL (≈ 6.84 µM).

In the case of `COc1ccccc1C1=C(Br)C(=O)N(CC(C)C)/C1=C/c1ccc(C(F)(F)F)cc1`, the IC50 was determined as 2.96 µg/mL (≈ 6.16 µM).

`COc1ccc(C)cc1C1=C(Br)C(=O)N(CC(C)C)/C1=C\c1ccccc1Cl`: the IC50 was determined as 1.09 µg/mL (≈ 2.37 µM).

`COc1ccc(Br)cc1C1=C(Br)C(=O)O/C1=C\c1ccc(Br)cc1`: the IC50 worked out at 18.7 µg/mL (≈ 36.3 µM).

`COc1ccc(C)cc1C1=C(Br)C(=O)N(CC(C)C)/C1=C/c1ccccc1Cl`: the IC50 was 1.04 µg/mL (≈ 2.26 µM).

The next experiment relates to Enterococcus faecalis. Kind of experiment: Antimicrobial activity against Enterococcus faecalis assessed as bacterial growth at 0.68 ug/ml after 20 hrs by microtiter plate assay. The class given is functional.
`COc1cccc(/C=C2\C(c3cc(Cl)ccc3OC)=C(Br)C(=O)N2CC(C)C)c1`: the Activity is given as -6%.

For `COc1ccccc1C1=C(Br)C(=O)N(CC(C)C)/C1=C/c1ccc(C(F)(F)F)cc1`, the Activity is 2.3%.

Consider `COc1ccc(C)cc1C1=C(Br)C(=O)N(CC(C)C)/C1=C\c1ccccc1Cl`, for which the Activity worked out at 6.9%.

On to `COc1ccc(Br)cc1C1=C(Br)C(=O)O/C1=C\c1ccc(Br)cc1`, for which the Activity was 10.4%.

Consider `COc1ccc(C)cc1C1=C(Br)C(=O)N(CC(C)C)/C1=C/c1ccccc1Cl`, for which the Activity was -1%.

The next experiment has as its system Enterococcus faecalis. Put plainly: Antimicrobial activity against Enterococcus faecalis assessed as bacterial growth at 10.9 ug/ml after 20 hrs by microtiter plate assay. In kind it is functional.
Turning to `COc1cccc(/C=C2\C(c3cc(Cl)ccc3OC)=C(Br)C(=O)N2CC(C)C)c1`, the Activity is 20.8%.

In the case of `COc1ccccc1C1=C(Br)C(=O)N(CC(C)C)/C1=C/c1ccc(C(F)(F)F)cc1`, the Activity is 11.1%.

On to `COc1ccc(C)cc1C1=C(Br)C(=O)N(CC(C)C)/C1=C\c1ccccc1Cl`, for which the Activity is 45.1%.

Consider `COc1ccc(Br)cc1C1=C(Br)C(=O)O/C1=C\c1ccc(Br)cc1`, for which the Activity came to 19.9%.

For the compound `COc1ccc(C)cc1C1=C(Br)C(=O)N(CC(C)C)/C1=C/c1ccccc1Cl`, the Activity worked out at 36.1%.
